The values that follow come from ChEMBL document CHEMBL4765339, “Design, synthesis, and biological evaluation of 4-substituted-3,4-dihydrobenzo[h]quinoline-2,5,6(1H)-triones as NQO1-directed antitumor agents” (Eur J Med Chem, 2020).

Data set [1] has as its system HepG2. The experiment in a line: Induction of apoptosis in human HepG2 cells assessed as early apoptotic cells at 2.2 uM incubated for 24 hrs by annexinV-FITC and PI staining based flow cytometry analysis (reference value: 2.65 %). It is filed as functional.
In data set [2] the test system is HepG2. The experiment in a line: Induction of apoptosis in human HepG2 cells assessed as late apoptotic cells at 2.2 uM incubated for 24 hrs in presence of dicoumarol by annexinV-FITC and PI staining based flow cytometry analysis (reference value: 2.27 %). It is filed as functional.
Another data set deals with A549. The experiment in a line: Cytotoxicity against human A549 cells assessed as reduction in cell growth pretreated for 1 hr with NQO1 inhibitor, dicoumarol followed by incubation with compound for 48 hrs by MTT assay. It is filed as functional. In general terms: Formazan colour is commonly taken as a measure of viable cells.
Data set [3] in a line: Selectivity index, ratio of GI50 for human A549 cells pretreated for 1 hr with ROS scavenger, N-acetyl cysteine followed by incubation with compound for 48 hrs to GI50 for human A549 cells measured after 48 hrs by MTT assay. It is filed as functional.
In data set [4] the test system is HepG2. The experiment in a line: Induction of apoptosis in human HepG2 cells assessed as viable cells at 2.2 uM incubated for 24 hrs in presence of dicoumarol by annexinV-FITC and PI staining based flow cytometry analysis (reference value: 94.73 %). It is filed as functional. As to conditions: read-out: Activity. On the technique in general: In flow cytometry, cells or beads pass a laser one at a time.

Data set [5] concerns HepG2. The experiment in a line: Cytotoxicity against human HepG2 cells assessed as reduction in cell growth incubated for 48 hrs by MTT assay. The class given is functional.
The nature of data set [6]: Selectivity index, ratio of GI50 for human L02 cells to GI50 for human HepG2 cells measured after 48 hrs by MTT assay. The note with it: L02 cells and HepG2 cells, read-out: RatioGI50. The class given is toxicity.
Data set [7] deals with HepG2. The experiment in a line: Cytotoxicity against human HepG2 cells assessed as reduction in cell growth pretreated for 1 hr with NQO1 inhibitor, dicoumarol followed by incubation with compound for 48 hrs by MTT assay. It is filed as functional.
In data set [8] the test system is HepG2. The experiment in a line: Induction of cell cycle arrest in human HepG2 cells assessed as increase in accumulation at S/G2 phase incubated for 24 hrs by PI staining based flow cytometry analysis. The class given is functional. As to conditions: dose 0.75-3 µM.
In data set [9] the test system is HepG2. The experiment in a line: Induction of mitochondrial membrane potential loss in human HepG2 cells at 2.2 uM incubated for 48 hrs by JC-1 staining based flow cytometry analysis (reference value: 2.06 %). The class given is functional.
Data set [10] deals with HepG2. The experiment in a line: Induction of apoptosis in human HepG2 cells assessed as late apoptotic cells at 2.2 uM incubated for 24 hrs by annexinV-FITC and PI staining based flow cytometry analysis (reference value: 2.27 %). The class given is functional.
In data set [11] the test system is HepG2. The experiment in a line: Induction of mitochondrial membrane potential loss in human HepG2 cells at 1.1 uM incubated for 48 hrs by JC-1 staining based flow cytometry analysis (reference value: 2.06 %). It is filed as functional.

As to `COc1ccc(C2CC(=O)NC3=C2C(=O)C(=O)c2ccccc23)cc1O` (configuration not stated), the Activity in the data set with HepG2 [1] is 10.85%; in the data set on HepG2 [2], 9.46%; with HepG2 [8], “Dose-dependent effect”; in the data set on HepG2 [9], 11.03%; in the data set on HepG2 [10] it was 12.2%; in the data set with HepG2 [11] it was 7.42%. Further, the GI50 (usually the concentration at which growth is held to half of that of the control) is 5.3 µM with A549, 2.23 µM with HepG2 [5] and 4.93 µM with HepG2 [7]. The RatioGI50 in [3] is 2. Further, in the data set on HepG2 [4], the viability at 2.2 µM stood at 81.6%. In addition, the selectivity ratio at 48 h in data set [6] came to 2.
